Experimental data: patent US6869974B1, “Pharmaceutical compounds” (Nicox S.A., priority 1999, dated 2005)
“Also recorded” adds a separate entry of the source.

System: not listed separately
Assay: in vivo
Settings: rat, in vivo
Description: (§1) The animals (rats) are distributed in the following groups (no. 10 animals for group):
(§2) • 1° group: treatment: only carrier (aqueous suspension 1% w/v of carboxyymethylcellulose, dose: 5 ml/Kg when the drug is administered by os, or a physiologic solution when parenterally administered, i.e. by subcutaneous, intraperitoneal, ir-ravenous or intermuscular route), • 2° group: treatment: carrier as above defined+NEM, B) Groups treated with the drug: • group I: treatment: carrier+drug, • gruppo II: treatment: carrier+drug+NEM.
(§3) The administration routes are those known for the drug, and can be the oral or subcutaneous, intraperitoneal, intravenous or intramuscular route.
(§4) The animals are sacrificed after 24 hours and then one proceeds to the evaluation of the damage to the gastrointestinal mucosa.
(§5) Test 1—experimental model in vivo with N-ethylmaleimide (NEM): study of the gastric tolerability of some drugs screened as precursors of the compounds of the invention.
(§6) The animals (rats, weight about 200 g) are distributed in the following groups (No. 10 animals for group):
(§7) • 1° group: treatment: only carrier (aqueous suspension 1% w/v of carboxymethylcellulose, dose: 5 ml/Kg when the drug is administered by os, physiologic solution when by parenteral route), • 20 group: treatment: carrier+NEM, B) Groups administered with each drug: • group I: treatment: carrier+drug, • group II: treatment: carrier+drug+NEM.
(§8) The drug is administered one hour later, in suspension in the carrier. Animals are sacrificed after 24 hours and evaluation of the damage to the gastrointestinal mucosa is made by counting the number of rats, inside each group, with lesions to the stomach at a visual inspection. The total number of said rats is then divided by the total number of rats of the group and multiplied by 100.

Molecule	MTD at 24 h [mg/kg]
CCCCC(C)(O)C/C=C/[C@H]1[C@H](O)CC(=O)[C@@H]1CCCCCCC(=O)OC (mixture of isomers) [Misoprostol, misoprostol]	0.5
Nc1ccc(O)c(C(=O)O)c1 [Mesalamine, mesalamine]	750

System: rats not treated or treated with NEM
Assay: in vivo
Settings: rats not treated with NEM; single dose; route given with each value (p.o., i.c., s.c.)
Description: as §1, §2, §3, §4, §5, §6, §7, §8

Molecule	maximum tolerated dose (dose (mg/Kg)/admin. route)
COc1ccc2c(c1)c(CC(=O)O)c(C)n2C(=O)c1ccc(Cl)cc1 [Indomethacin, indomethacin]	7.5 mg/kg
COc1ccc2[nH]c([S+]([O-])Cc3ncc(C)c(OC)c3C)nc2c1 (stereo not shown) [Omeprazol, omeprazol]	30/s.c. mg/Kg
Nc1c2c(nc3ccccc13)CCCC2 [Tacrine, tacrine]	1/s.c. mg/Kg

System: Human endothelial cells of the umbilical vein
Assay: Test 2 (CIP): apoptosis (DNA fragmentation) induced by cumene hydroperoxide in endothelial cells
Assay type: cell-based
Settings: Homo sapiens, Endothelial cell, 1 h; Table II; drug 10^-4 M, CIP 5 mM for one hour, DNA fragmentation; read-out: Apoptosis % with respect to the controls treated only with CIP
Description: Test 2 (CIP): Protection parameter of endothelial cell against the oxidative stress induced by cumene hydroperoxide (CIP).
Human endothelial cells of the umbilical vein are prepared according to an usual standard procedure. Fresh umbilical veins are filled with a 0.1% by weight collagenase solution and incubated at 37° C. for 5 minutes.
The cells are collected from the perfusate by centrifugation and harvested in culture flasks T-75, pretreated with human fibronectin. The cells are then harvested in the same medium, further added with 10 ng/ml of bovine hypothalamic growth factor. When the cells of the primary cell culture (i.e. that directly obtained from ex-vivo) form a single layer of confluent cells (about 8,000,000 cells/flask), the culture is stopped and the layers washed and trypsinized. The cellular suspensions are transferred into the wells of a cell culture plate having 24 wells, half of which is then additioned with the same culture medium containing the drug at a 10^−4M concentration, and harvested in a thermostat at 37° C. at a constant moisture. Only the cells coming from said first sub-cultures are used for the experiments with cumene hydroperoxide (CIP).
Before starting the test, the cellular culture medium is removed and the cellular layers are carefully washed with a physiologic solution at a temperature of 37° C. The wells of the culture plate are then incubated for one hour with CIP at a 5 mM concentration in the culture medium. […] 5 replicates for each sample are carried out.
Human endothelial cells of the umbilical vein are prepared according to a standard method. Fresh umbilical veins are filled with a collagenase solution 0.1% by weight and incubated at 37° C. for 5 minutes.
The cells are collected from the perfusate by centrifugation at 800 rpm and harvested in culture flasks T-75, pretreated with human fibronectin. Cells are then harvested in the same medium, added with bovine hypothalamic growth factor (100 ng/ml). When the cells of the primary cell culture (the cells directly removed from ex-vivo umbilical vein) form a single layer of confluent cells (abdut 8,000,000 cells/flask), harvesting is stopped and the layers are washed and trypsinized. The cellular suspensions are transferred into wells of a culture plate having 24 wells, half of said wells being added with the same culture medium containing the drug at a 10^−4M concentration, and harvested in a thermostat at 37° C. at a constant moisture (90%), CO2=5%. When the drug is not soluble in the culture medium, it is formerly dissolved in a small amount of di-methylsulphoxide. The maximum amount of dimethylsulphoxide which can be added to the culture medium is 0.5%. Only the cells coming from these first subcultures are used for the tests with cumene hydroperoxide (CIP).
Before starting the test, the cellular culture medium is removed and the cellular layers are carefully washed with a standard physiologic solution buffered with phosphate 0.1 M pH 7.0, at the temperature of 37° C. The content of each well is then incubated for one hour with a CIP suspension in the culture medium at a 5 mM concentration. Evaluation of the cellular damage (apoptosis) is carried out by determining the percent variation of the DNA fragmentation in the cultures containing the drug+CIP with respect to the controls treated with CIP only. […] The fluorescence of each sample was determined on 5 replicates. Statistic evaluation has been made with t Student test (p<0.01).

Molecule	activity at 100 µM [%]
NCCCC(O)(P(=O)(O)O)P(=O)(O)O [Alendronate, sodic alendronate]	160
COc1ccc2c(c1)c(CC(=O)O)c(C)n2C(=O)c1ccc(Cl)cc1 [Indomethacin, indomethacin]	95
CCC(C)(C)C(=O)O[C@H]1C[C@@H](C)C=C2C=C[C@H](C)C(CCC3CC(O)CC(=O)O3)[C@H]21 (stereo partly shown) [Simvastatine, simvastatine]	72
Cn1c(=O)c2c(ncn2CC(O)CO)n(C)c1=O (stereo not shown) [Diphylline, diphylline]	95
COc1ccc2[nH]c([S+]([O-])Cc3ncc(C)c(OC)c3C)nc2c1 (stereo not shown) [Omeprazol, omeprazol]	90
CC(C)(C)NCC(O)c1ccc(O)c(CO)c1 (stereo not shown) [Salbutamol, salbutamol]	90
CC(=O)Nc1ccc(O)cc1 [Paracetamol, paracetamol]	120
Nc1ccc(O)c(C(=O)O)c1 [Mesalamine, mesalamine]	74
Nc1c2c(nc3ccccc13)CCCC2 [Tacrine, tacrine]	90
NC(=O)c1cccnc1 [Nicotinamide, nicotinamide]	98

Same assay, conditions: Table II; drug 10^-4 M, CIP 5 mM for one hour, DNA fragmentation

Molecule	Apoptosis % with respect to the controls treated only with CIP [%]
clopidogrel	110
aciclovir	95
cetirizine	115

Same assay, conditions: Table III, second apoptosis experiment (Example F6); CIP-induced DNA fragmentation

Molecule	Apoptosis % with respect to the controls treated only with CIP [%]
COc1ccc2c(c1)c(CC(=O)O)c(C)n2C(=O)c1ccc(Cl)cc1 [Indomethacin, indomethacin]	95

Same assay, conditions: drug 10^-4 M, CIP 5 mM

Molecule	inhibition of apoptosis induced by CIP (in words, significance p<0.01)
NCCCC(O)(P(=O)(O)O)P(=O)(O)O [Alendronate, sodic alendronate]	do not significantly inhibit apoptosis
COc1ccc2c(c1)c(CC(=O)O)c(C)n2C(=O)c1ccc(Cl)cc1 [Indomethacin, indomethacin]	not significantly different with respect to that of the controls
clopidogrel	do not significantly inhibit apoptosis
Nc1c(Br)cc(Br)cc1CN[C@H]1CC[C@H](O)CC1 [Ambroxol, ambroxol]	inhibit apoptosis
enalapril	do not significantly inhibit apoptosis
Cn1c(=O)c2c(ncn2CC(O)CO)n(C)c1=O (stereo not shown) [Diphylline, diphylline]	do not significantly inhibit apoptosis
COc1ccc2[nH]c([S+]([O-])Cc3ncc(C)c(OC)c3C)nc2c1 (stereo not shown) [Omeprazol, omeprazol]	do not significantly inhibit apoptosis
CC(C)(C)NCC(O)c1ccc(O)c(CO)c1 (stereo not shown) [Salbutamol, salbutamol]	do not significantly inhibit apoptosis
CC(=O)Nc1ccc(O)cc1 [Paracetamol, paracetamol]	do not significantly inhibit apoptosis; also recorded: not significantly different with respect to that of the controls
Nc1ccc(O)c(C(=O)O)c1 [Mesalamine, mesalamine]	inhibit apoptosis; also recorded: inhibits the apoptosis induced by CIP
aciclovir	do not significantly inhibit apoptosis
Nc1c2c(nc3ccccc13)CCCC2 [Tacrine, tacrine]	do not significantly inhibit apoptosis
NC(=O)c1cccnc1 [Nicotinamide, nicotinamide]	do not significantly inhibit apoptosis
CC1(C)S[C@@H]2[C@H](NC(=O)[C@H](N)c3ccccc3)C(=O)N2[C@H]1C(=O)O [Ampicilline, ampicilline]	do not significantly inhibit apoptosis
cetirizine	do not significantly inhibit apoptosis

Same assay, conditions: drug 10^-4 M, CIP 5 mM; listed as indomethacin

Molecule	inhibition of apoptosis induced by CIP (in words, significance p<0.01)
COc1ccc2c(c1)c(CC(=O)O)c(C)n2C(=O)c1ccc(Cl)cc1 [Indomethacin, indomethacin]	do not significantly inhibit apoptosis

System: not listed separately
Assay: Test 4: inhibition of radical production from DPPH
Settings: 100 μM (10^-4 M) in methanol, 30 minutes, absorbance 517 nm
Description: Test 4 is a […] test which affords to establish whether the precursor of B or B1 (precursor of the X2 or X2a of the formulas (I) and (II) respectively), inhibits the production of radicals from DPPH (2,2-diphenyl-1-picryl-hydrazyl) (M. S. Nenseter et Al., Atheroscler. Thromb. 15, 1338-1344, 1995). 100 μM solutions in methanol of the tested substances are prepared, and an aliquot of each of said solutions is added to a DPPH solution in methanol […]. After having stored the solutions at room temperature away from light for 30 minutes, their absorbances are read at the wave length of 517 nm, together with that of the corresponding DPPH solution at the same concentration. The absorbance decrease with respect to that of the solution of DPPH at the same concentration of the test solutions is determined. The effectiveness of the tested compound in inhibiting formation of radicals by DPPH is expressed by the following formula: (1−AS/AC)X100 wherein AS and AC are respectively the absorbance values of the solution containing the test compound together with DPPH and of the solution containing only DPPH.
The B or B1 precursor satisfies test 4 if their effectiveness in inhibiting radical production as above defined, is equal to or higher than 50% at the indicated concentration (10^−4 M).
Test 4: inhibition of the radical production from DPPH of some substances to be used as precursors of B or B1 (ref. Formulas I and II of the invention)
The method is based on a colorimetric test in which DPPH (2,2-diphenyl-1-picryl-hydrazyl) is used as the compound-forming radicals (M. S. Nenseter et Al., Atheroscler. Thromb. 15, 1338-1344, 1995).
Solutions in methanol of the tested substances at a final concentration 100 μM are initially prepared. 0.1 ml of each of these solutions are added to aliquots of 1 ml of a methanol solution 0.1 M of DPPH and then the final volume is brought to 1.5 ml. After having stored the solutions at room temperature away from light for 30 minutes, the absorbance at the wave length of 517 nm is read. It is determined the absorbance decrease with respect to the absorbance of a solution containing the same concentration of DPPH.
The efficacy of the test compound to inhibit the production of radicals, or antiradical activity, is expressed by the following formula: (1−AS/AC)X100 wherein AS and AC are, respectively, the absorbance values of the solution containing the test compound together+DPPH and of the solution containing only DPPH.
The compound meets test 4 if radical production inhibition, as above defined, is equal to or higher than 50%.

Molecule	% inhibition radicals from DPPH [%]
CC(C)(S)[C@@H](N)C(=O)O [Penicillamine, penicillamine]	100

Same assay, conditions: 100 μM (10^-4 M) in methanol, 30 minutes, absorbance 517 nm; 100 µM

Molecule	% inhibition radicals from DPPH [%]
O=C(O)c1cc(O)ccc1O [Gentisic acid, gentisic acid]	80
COc1cc(/C=C/C(=O)O)ccc1O [Ferulic acid, ferulic acid]	100
N[C@@H](CS)C(=O)O [Cisteine, cisteine]	100

Same assay, conditions: 100 μM (10^-4 M) in methanol, 30 minutes, absorbance 517 nm; listed as N-acetylcysteine, 100 µM

Molecule	% inhibition radicals from DPPH [%]
CC(=O)N[C@H](CS)C(=O)O [N-acetylcisteine]	100
